Patent US7785846B2, “Method for the production of methionine” (Evonik Degussa GmbH, priority 2003, dated 2010)
Values after ≈ are worked out from the molar mass of the structure shown.

Tests used:
[1] = under these conditions (20° C. and 70° C.), compared with water
[2] = physchem; settings: water

solubility in the fermentation broth [1]: comparable order of magnitude
solubility ([2]; 20 °C): ~30 mg/mL (≈ 201 mM)
solubility ([2]; 70 °C): > 90 mg/mL
Structure (SMILES): CSCC[C@H](N)C(=O)O [methionine]
